Test results taken from patent US10933141B2, “Formulations with reduced degradation of polysorbate” (Genentech, Inc., priority 2015, dated 2021).
Entries after “also recorded” stand apart in the source; their conditions may differ.

Columns and labels:
[1] = target: T1, porcine pancreatic lipase (PPL) (Sus scrofa, UniProt P00591); experiment: Enzymatic degradation of PS20 by PPL, 4.5 hour digestion, PS20 by RP-ELSD; assay type: biochemical; details: 0.02% PS20; 15 μg/mL PPL 4.5 hours; excipient 15% w/v (methionine 10 mg/mL)
T1 construct: purchased Sigma Aldrich Inc. (St. Louis, Mo.)
T1 sequence (P00591 1-450): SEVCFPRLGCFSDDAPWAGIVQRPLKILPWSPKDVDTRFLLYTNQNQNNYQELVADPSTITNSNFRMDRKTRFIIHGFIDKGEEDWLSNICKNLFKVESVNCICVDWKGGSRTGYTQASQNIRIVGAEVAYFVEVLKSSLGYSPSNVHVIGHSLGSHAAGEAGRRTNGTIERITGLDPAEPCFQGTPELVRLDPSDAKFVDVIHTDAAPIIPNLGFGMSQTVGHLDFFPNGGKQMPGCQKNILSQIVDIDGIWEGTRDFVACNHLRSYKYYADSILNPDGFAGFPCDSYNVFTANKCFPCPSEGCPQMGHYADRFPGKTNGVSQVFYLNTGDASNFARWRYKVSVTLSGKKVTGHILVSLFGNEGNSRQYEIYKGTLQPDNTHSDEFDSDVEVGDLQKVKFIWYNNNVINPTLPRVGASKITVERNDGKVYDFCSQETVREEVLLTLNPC
Description: Polysorbate concentration was determined using reverse phase ultra-performance liquid chromatography using evaporative light scattering detection (RP-ELSD). Samples were analyzed using an Agilent 1100 series high performance liquid chromatography system (HPLC) fitted with a Waters Oasis MAX cartridge column (20×2.1 mm, 30 μm particle size). The HPLC system was set up with a switching valve directing column flow-through to either waste or a Varian 380-LC evaporative light scattering detector set to 100° C. The mobile phases consisted of 2% formic acid in water (Pump A) and 2% formic acid in isopropanol (Pump B). The pump gradient was isocratic at 10% pump B during equilibration, linear to 20% pump B for 1 minute, isocratic at 20% pump B for 2.4 minutes, linear to 100% pump B for 0.1 minutes, isocratic at 100% pump B for 1.1 minutes, linear to 10% pump B for 0.1 minutes, and finally isocratic at 10% pump B for 1.9 minutes. The switching valve directed column flow-through to waste at the beginning of every injection, and then directed flow to the detector after 2.4 minutes until the end of the gradient. In order to quantitate the PS20 concentration, a standard curve was generated by injecting 20 μL of solutions containing between 0% w/v and 0.4% w/v PS20.
(§1) Several excipients were tested for their ability to protect PS20 against enzymatic hydrolysis including HP-α-CD, HP-β-CD, HP-γ-CD, SBE-β-CD, PVP, PEG 1500, sucrose, and methionine. Solutions of each excipient in pH 5.5 buffer were prepared containing a final concentration of 0.02% PS20 after enzyme addition. The concentration of HP-α-CD, HP-β-CD, HP-γ-CD, and SBE-β-CD in the excipient solutions was 106 mM. […] The remaining excipients (PVP, PEG 1500, sucrose) were added to 15% w/v to match the % w/v of HP-β-CD. Samples were digested with 15 μg/mL PPL enzyme for 4.5 hours at room temperature, followed by 30 minutes of heat inactivation at 85° C. Each sample was analyzed for PS20 concentration using high performance liquid chromatography with an inline evaporative light scattering detector. Samples were then placed at 5° C. overnight to allow for the formation of particles and were analyzed for visible and subvisible particles as described previously.
(§2) The effect of the HP-β-CD concentration at different PS20 concentrations on the enzymatic degradation of PS20 was assessed to identify optimal concentrations for inhibition of enzymatic PS20 degradation. To evaluate the dependence of PS20 degradation on HP-β-CD concentration, the PS20 content was determined using RP-ELSD for triplicate samples containing different HP-β-CD concentrations at various PS20 concentrations. Samples containing 0.005% (FIG. 14A), 0.02% (FIG. 14B), 0.1% (FIG. 14C), and 0.4% PS20 (FIG. 14D) were digested using 15 μg/mL of PPL enzyme for 4.5 hours at room temperature in protein-free samples containing no excipient (control), 0, 0.5, 5, and 15% (w/v) HP-β-CD. PPL was added to each of the treatment solutions at a ratio of 75 […], with an equivalent volume of buffer added to the control solutions to determine the effect of HP-β-CD to polysorbate ratio on enzymatic degradation. Digestion was stopped by heat inactivation in an 85° C. water bath for 30 minutes. Each sample was analyzed for PS20 concentration using high performance liquid chromatography with an inline evaporative light scattering detector as described above. Samples were then placed at 5° C. overnight to allow for the formation of particles and placed on ice during analysis for visible and subvisible particles as described above.

[2] = target: T1, porcine pancreatic lipase (PPL); experiment: Subvisible particle formation after PPL digestion of PS20 (HIAC); assay type: physicochemical; details: 0.02% PS20; 15 μg/mL PPL 4.5 hours, then 5° C. overnight; excipient 15% w/v (methionine 10 mg/mL)
Description: Subvisible particles were measured using a HIAC 9703 particle counter equipped with an HRDL-150 detector and a 1 mL syringe. Performance of the instrument was verified with NIST-traceable 2 μm Polystyrene bead standards at 3000 counts/mL before each measurement session. The HIAC instrument was configured to a 10 mL/min flow rate, 0.1 mL tare volume, and 0.4 mL sample volume. The samples were analyzed using 4 runs of 0.4 mL sips, with the first run of each sample was discarded to prevent measurement error due to sample carryover. Results were reported as the average values for 1.4, 2, 5, 10, 15, and 25, 50 μm analysis filter sizes.
as §1, §2

| Molecule | inhibitory effect on enzymatic PS20 degradation (in words) [1] | effect on SVP formation (in words) [2] |
| --- | --- | --- |
| CSCC[C@H](N)C(=O)O [methionine, reference compound] | did not have an inhibitory effect | did not have an inhibitory effect |
| sulfobutyl ether β-cyclodextrin [SBE-β-CD] | significant inhibitory effects; also recorded: able to prevent enzymatic degradation of PS20 | significant inhibitory effects |
